Experimental data as given in patent US20230399312A1, “SUBSTITUTED PYRIMIDINES AND METHODS OF USE” (THERAVANCE BIOPHARMA R&D IP, LLC, priority 2020, published 2023).

Columns and labels:
[1] = molecular target: T1, recombinant human ALK5 (TGF-βR1) protein (Homo sapiens, UniProt P36897); assay: Biochemical ALK5 (TGF-βR1) assay to measure pKi (LANCE Ultra ULight kinase assay); settings: apparent pKi, converted from pIC50 by Cheng-Prusoff
T1 construct: purchased Life Technologies PR9075A
T1 sequence (P36897 34-503): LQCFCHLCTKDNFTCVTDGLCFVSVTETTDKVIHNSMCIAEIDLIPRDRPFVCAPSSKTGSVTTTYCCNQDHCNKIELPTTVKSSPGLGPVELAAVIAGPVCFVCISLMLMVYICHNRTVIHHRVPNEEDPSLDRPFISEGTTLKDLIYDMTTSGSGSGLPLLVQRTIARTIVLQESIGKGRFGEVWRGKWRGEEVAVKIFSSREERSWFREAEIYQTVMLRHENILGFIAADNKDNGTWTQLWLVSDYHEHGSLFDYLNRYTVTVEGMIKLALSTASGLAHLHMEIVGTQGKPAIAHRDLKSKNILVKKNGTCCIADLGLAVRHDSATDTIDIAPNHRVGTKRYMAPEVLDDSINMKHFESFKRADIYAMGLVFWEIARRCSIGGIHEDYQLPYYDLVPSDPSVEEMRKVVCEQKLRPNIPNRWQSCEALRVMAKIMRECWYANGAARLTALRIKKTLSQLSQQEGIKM
Summary of the method: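 Enzyme was preincubated with compound for 60 min at room temperature, then ATP (added from a 125 μM 5× stock with 2 mM DTT) started a 60 min reaction at 37 °C. EDTA plus Eu-anti-phospho-Topo2α (Thr1342) antibody stopped it; TR-FRET pIC50 values were converted to pKi by Cheng-Prusoff.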

[2] = tested on: TGF-β-stimulated SMAD3 phosphorylation in BEAS-2B cells; assay: Cellular ALK5 potency assay, inhibition of TGF-β stimulated pSMAD3 formation in BEAS-2B cells; format: cell-based; settings: Homo sapiens, pSMAD3, TGF-β 10 ng/mL, read-out: BEAS2B pIC50 (converted)
Summary of the method: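 Human lung epithelial BEAS-2B cells were preincubated 1 h at 37 °C with compound in HBSS/HEPES/1% BSA, then stimulated 30 min with 10 ng/mL TGF-β. pSMAD3 in lysates was quantified by AlphaLISA relative to untreated stimulated cells; reported as pIC50.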

SMILES	Ki [1] [nM]	IC50 [2] [nM]
Cc1cccc(-c2nccc(Nc3ccnc(Nc4ccc(C(=O)O)cc4)n3)n2)n1 [Compound 406, 4-[[4-[[2-(6-methyl-2-pyridyl)pyrimidin-4-yl]amino]pyrimidin-2-yl]amino]benzoic acid]	0.398 to 3.16	200 to 1260
Cc1cccc(-c2nccc(Nc3ccnc(Nc4ccc(Br)cc4)n3)n2)n1 [Compound 234, N2-(4-bromophenyl)-N4-[2-(6-methyl-2-pyridyl)pyrimidin-4-yl]pyrimidine-2,4-diamine]	3.98 to 31.6	25.1 to 158
COc1ncc(Nc2nccc(Nc3ccnc(-c4cccc(C)n4)n3)n2)cc1NS(C)(=O)=O [Compound 20, N-[2-methoxy-5-[[4-[[2-(6-methyl-2-pyridyl)pyrimidin-4-yl]amino]pyrimidin-2-yl]amino]-3-pyridyl]methanesulfonamide]	0.398 to 3.16	≤ 20
Cc1cccc(-c2nccc(Nc3ccnc(Nc4ccc(CN5CC(C(=O)OC6CCNCC6)C5)cc4)n3)n2)n1 [Compound 22, 4-piperidyl 1-[[4-[[4-[[2-(6-methyl-2-pyridyl)pyrimidin-4-yl]amino]pyrimidin-2-yl]amino]phenyl]methyl] azetidine-3-carboxylate]	0.0398 to 0.316	25.1 to 158
Cc1cccc(-c2nccc(Nc3ccnc(Nc4ccc(CN5CC(C(=O)O)C5)cc4)n3)n2)n1 [Compound 237, 1-[[4-[[4-[[2-(6-methyl-2-pyridyl)pyrimidin-4-yl]amino]pyrimidin-2-yl]amino]phenyl]methyl] azetidine-3-carboxylic acid]	0.0398 to 0.316	200 to 1260
Cc1cccc(-c2nccc(Nc3ccnc(Nc4ccc(C5=CCC(N)CC5)cc4)n3)n2)n1 (stereo not shown) [Compound 151, N2-[4-(4-aminocyclohexen-1-yl)phenyl]-N4-[2-(6-methyl-2-pyridyl)pyrimidin-4-yl]pyrimidine-2,4-diamine]	0.0398 to 0.316	25.1 to 158
Cc1cccc(-c2nccc(Nc3ccnc(Nc4ccc(-c5cn(C)nn5)cc4)n3)n2)n1 [Compound 328, N4-[2-(6-methyl-2-pyridyl)pyrimidin-4-yl]-N2-[4-(1-methyltriazol-4-yl)phenyl]pyrimidine-2,4-diamine]	0.0398 to 0.316	≤ 20
Cc1cccc(-c2nccc(Nc3ccnc(Nc4cccc(NC(=O)N5CCN(C)CC5)c4)n3)n2)n1 [Compound 509, 4-methyl-N-[3-[[4-[[2-(6-methyl-2-pyridyl)pyrimidin-4-yl]amino]pyrimidin-2-yl]amino]phenyl]piperazine-1-carboxamide]	0.0398 to 0.316	25.1 to 158
Cc1cccc(-c2nccc(Nc3ccnc(Nc4ccc(N5C6CCC5CNC6)cc4)n3)n2)n1 [Compound 221, N2-(4-(3,8-diazabicyclo[3.2.1]octan-8-yl)phenyl)-N4-(2-(6-methylpyridin-2-yl)pyrimidin-4-yl)pyrimidine-2,4-diamine]	0.0398 to 0.316	25.1 to 158
Cc1cccc(-c2nccc(Nc3ccnc(Nc4ccc(NCCO)cc4)n3)n2)n1 [Compound 321, 2-[4-[[4-[[2-(6-methyl-2-pyridyl)pyrimidin-4-yl]amino]pyrimidin-2-yl]amino]anilino]ethanol]	0.398 to 3.16	25.1 to 158
CNC1CCN(c2ccc(Nc3nccc(Nc4ccnc(-c5cc(O)ccc5C)n4)n3)cc2)CC1 [Compound 379, 4-methyl-3-[4-[[2-[4-[4-(methylamino)-1-piperidyl]anilino]pyrimidin-4-yl]amino]pyrimidin-2-yl]phenol]	0.398 to 3.16	200 to 1260
CCNC(=O)Cc1cc(Nc2ccnc(Nc3ccc(N4CCNCC4)cc3)n2)nc(-c2cccc(C)n2)n1 [Compound 1006, N-ethyl-2-[2-(6-methyl-2-pyridyl)-6-[[2-(4-piperazin-1-ylanilino)pyrimidin-4-yl]amino]pyrimidin-4-yl] acetamide]	0.398 to 3.16	200 to 1260
Cc1cccc(-c2nccc(Nc3ccnc(Nc4cccc(C(=O)N5CCN(C)CC5)c4)n3)n2)n1 [Compound 396, (4-methylpiperazin-1-yl)-[3-[[4-[[2-(6-methyl-2-pyridyl)pyrimidin-4-yl]amino]pyrimidin-2-yl]amino]phenyl]methanone]	0.398 to 3.16	25.1 to 158
Cc1cccc(-c2nccc(Nc3ccnc(Nc4ccc(N5CCN(CC6CCC(=O)O6)CC5)cc4)n3)n2)n1 (stereo not shown) [Compound 235, 5-[[4-[4-[[4-[[2-(6-methyl-2-pyridyl)pyrimidin-4-yl]amino]pyrimidin-2-yl]amino]phenyl]piperazin-1-yl]methyl]tetrahydrofuran-2-one]	0.0398 to 0.316	≤ 20

More lines, main results first:

Ki [1] [nM]	SMILES	IC50 [2] [nM]
0.0398 to 0.316	Cc1cccc(-c2nccc(Nc3ccnc(Nc4ccc(C(=O)O[C@H]5CCN(C)C5)cc4)n3)n2)n1 [Compound 51, [(3S)-1-methylpyrrolidin-3-yl] 4-[[4-[[2-(6-methyl-2-pyridyl)pyrimidin-4-yl]amino]pyrimidin-2-yl]amino]benzoate]	25.1 to 158
0.0398 to 0.316	Cc1cccc(-c2nccc(Nc3ccnc(Nc4csc(C(=O)OC[C@H]5CCCN5)c4)n3)n2)n1 [Compound 583, [(2R)-pyrrolidin-2-yl]methyl 4-[[4-[[2-(6-methyl-2-pyridyl)pyrimidin-4-yl]amino]pyrimidin-2-yl]amino]thiophene-2-carboxylate]	25.1 to 158
0.0398 to 0.316	Cc1cccc(-c2nccc(Nc3ccnc(Nc4cccc(NC(=O)C5(CO)CNC5)c4)n3)n2)n1 [Compound 164, 3-(hydroxymethyl)-N-[3-[[4-[[2-(6-methyl-2-pyridyl)pyrimidin-4-yl]amino]pyrimidin-2-yl]amino]phenyl]azetidine-3-carboxamide]	25.1 to 158
0.0398 to 0.316	Cc1cccc(-c2nccc(Nc3ccnc(Nc4cccc(NC(=O)C5CCCNC5)c4)n3)n2)n1 (stereo not shown) [Compound 443, N-(3-((4-((2-(6-methylpyridin-2-yl)pyrimidin-4-yl)amino)pyrimidin-2-yl)amino)phenyl)piperidine-3-carboxamide]	≤ 20
0.0398 to 0.316	Fc1cc(F)c(-c2nccc(Nc3ccnc(Nc4ccc(N5CCC(N6CCCC6)CC5)cc4)n3)n2)cc1Cl [Compound 314, N4-[2-(5-chloro-2,4-difluoro-phenyl)pyrimidin-4-yl]-N2-[4-(4-pyrrolidin-1-yl-1-piperidyl)phenyl]pyrimidine-2,4-diamine]	25.1 to 158
0.0398 to 0.316	Cc1cccc(-c2nccc(Nc3ccnc(Nc4cccc(NC(=O)C5CCN(CCN(C)C)CC5)c4)n3)n2)n1 [Compound 134, 1-[2-(dimethylamino)ethyl]-N-[3-[[4-[[2-(6-methyl-2-pyridyl)pyrimidin-4-yl]amino]pyrimidin-2-yl]amino]phenyl]piperidine-4-carboxamide]	25.1 to 158
0.0398 to 0.316	Cc1cccc(-c2nccc(Nc3ccnc(Nc4cc(C(=O)OCC5CNC5)cs4)n3)n2)n1 [Compound 142, azetidin-3-ylmethyl 5-((4-((2-(6-methylpyridin-2-yl)pyrimidin-4-yl)amino)pyrimidin-2-yl)amino)thiophene-3-carboxylate]	25.1 to 158
0.0398 to 0.316	Cc1cccc(-c2nccc(Nc3ccnc(Nc4ccc(NCCN5CCN(C(C)C)CC5)cc4)n3)n2)n1 [Compound 346, N2-[4-[2-(4-isopropylpiperazin-1-yl)ethylamino]phenyl]-N4-[2-(6-methyl-2-pyridyl)pyrimidin-4-yl]pyrimidine-2,4-diamine]	25.1 to 158
0.0398 to 0.316	CC[C@H](C)OC(=O)C1CN(c2ccc(Nc3nccc(Nc4ccnc(-c5cccc(C)n5)n4)n3)cc2)CCN1 (stereo partly drawn) [Compound 113, [(1S)-1-methylpropyl] 4-[4-[[4-[[2-(6-methyl-2-pyridyl)pyrimidin-4-yl]amino]pyrimidin-2-yl]amino]phenyl]piperazine-2-carboxylate]	25.1 to 158
0.0398 to 0.316	Cc1cccc(-c2nccc(Nc3ccnc(Nc4ccc(CN5CCOCC5)cc4)n3)n2)n1 [Compound 366, N4-[2-(6-methyl-2-pyridyl)pyrimidin-4-yl]-N2-[4-(morpholinomethyl)phenyl] pyrimidine-2,4-diamine]	25.1 to 158
0.0398 to 0.316	Cc1cccc(-c2nccc(Nc3ccnc(Nc4ccc(N5CCNCC5)c(CC(=O)OC5CNC5)c4)n3)n2)n1 [Compound 530, azetidin-3-yl 2-[5-[[4-[[2-(6-methyl-2-pyridyl)pyrimidin-4-yl]amino]pyrimidin-2-yl]amino]-2-piperazin-1-yl-phenyl]acetate]	200 to 1260
0.0398 to 0.316	Cc1cccc(-c2nccc(Nc3ccnc(Nc4ccc(N5C[C@@H](C)N[C@@H](C)C5)cc4)n3)n2)n1 [Compound 143, N4-[2-(6-methyl-2-pyridyl)pyrimidin-4-yl]-N2-[4-[rac-(3S,5R)-3,5-dimethylpiperazin-1-yl]phenyl]pyrimidine-2,4-diamine]	25.1 to 158
